# Source: patent publication US11944605B2, “Rapamycin analogs and uses thereof” (Janssen Pharmaceutica NV, priority 2018, dated 2024)
# “Also recorded” adds a separate entry of the source. Like-named read-outs stand apart in the source and are kept apart here.
# Assays:
# [1] = tested on: mTORC2 (Akt phosphorylation) in Jurkat cells; assay: Western blot, mTORC2 pathway (pAkt) in Jurkat cells; assay type: cell-based; conditions: 24 hrs
# Description: (§1) The methods employed were substantially similar to those described above. Compounds were evaluated in PC3 cells, Jurkat cells, wild-type mouse embryotic fibroblast (MEF) cells, tuberous sclerosis 2 (TSC2) negative (TSC −/−) MEF cells, and tuberous sclerosis 2 (TSC2) positive (TSC +/+) MEF cells. Cells were incubated with compounds of the present invention for various time periods (e.g., 5 minutes, 15 minutes, 30 minutes, 90 minutes, 24 hours, or 48 hours), and evaluated according to known methodologies, such as those herein described.
# [2] = tested on: mTORC1 pathway in tuberous sclerosis (TSC2) negative (TSC−/−) MEF cells; assay: Western blot, mTORC1 pathway in TSC−/− MEF cells; assay type: cell-based, mouse
# Description: as §1
# [3] = tested on: IFN-γ production; assay: IFN-γ production in allogenic mixed lymphocyte reaction; assay type: cell-based; conditions: for IC50: read-out: IFN-γ Inhibition IC50s
# Description: Assessment of Effect on IFN-γ Production in Allogenic Mixed Lymphocyte Reaction
# The effect of rapamycin, everolimus, I-29, and I-117 on IFN-y production was evaluated in an allogenic mixed lymphocyte reaction (E.g., Eleftheriadis, T. et al., Int. J. Mol. Med., 37(5): 1412-20 (2016) https://doi.org/10.3892/ijmm.2016.2547).
# [4] = tested on: mTORC2 pathway (Akt phosphorylation) in PC3 cells; assay: Western blot, mTORC2 pathway (pAkt) in PC3 cells; assay type: cell-based; conditions: for inhibition of mTORC2 (Akt phosphorylation): 24 hours
# How it was run: (§2)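 Triton lysates analysed by Western blot for pS6K1 and pAkt, detected with IRDye 800 anti-rabbit secondary on a Li-Cor imager.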
# [5] = tested on: mTORC1 pathway (pS6K1 T389) in PC3 cells; assay: Western blot, mTORC1 pathway (pS6K1) in PC3 cells; assay type: cell-based
# How it was run: as §2
# [6] = tested on: mTORC1 over mTORC2; assay: mTORC1 selectivity over mTORC2 at 24 hrs (Western blot based pS6K1 and pAKT assay); assay type: cell-based; conditions: 24 hrs
# [7] = tested on: mTORC2 (Akt phosphorylation) in TSC−/− MEF cells; assay: Western blot, mTORC2 pathway (pAkt) in TSC−/− MEF cells; assay type: cell-based, mouse
# Description: as §1
# [8] = tested on: mTORC1 pathway in Jurkat cells; assay: Western blot, mTORC1 pathway in Jurkat cells; assay type: cell-based; conditions: 24 hrs
# Description: as §1
# [9] = tested on: mTORC1 pathway in tuberous sclerosis 2 (TSC2) positive (TSC+/+) MEF cells; assay: Western blot, mTORC1 pathway in TSC+/+ MEF cells; assay type: cell-based, mouse
# Description: as §1
# [10] = tested on: 4E-BP1 phosphorylation in PC3 cells; assay: Western blot, 4E-BP1 phosphorylation in PC3 cells; assay type: cell-based; conditions: 24 hours
# [11] = tested on: mTORC1 pathway in wild-type MEF cells; assay: Western blot, mTORC1 pathway in wild-type MEF cells; assay type: cell-based, mouse; conditions: 24 hours
# Description: as §1
# [12] = tested on: mTORC2 (Akt phosphorylation) in wild-type MEF cells; assay: Western blot, mTORC2 pathway (pAkt) in wild-type MEF cells; assay type: cell-based, mouse; conditions: 24 hours
# Description: as §1
# [13] = tested on: pS6K1 (p-p70 S6 Kinase (Thr389)) in MCF-7 cells; assay: AlphaLISA Ultra pS6K1 Assay; assay type: cell-based; conditions: Homo sapiens, 1.5 h; MCF7 cells, 90 min
# How it was run: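 MCF-7 cells were seeded for 20–24 h, refed with fresh medium for 2 h, then treated with compound for 90 min at 0.5% final DMSO. Lysates were frozen at −80 °C, thawed and assayed by AlphaLISA with acceptor then donor beads, 2 h each.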
# [14] = tested on: mTORC2 (Akt phosphorylation) in TSC+/+ MEF cells; assay: Western blot, mTORC2 pathway (pAkt) in TSC+/+ MEF cells; assay type: cell-based, mouse; conditions: 90 minutes
# Description: as §1
# [15] = tested on: T389 of S6K1 (an mTORC1 substrate); conditions: PC3, HEK-293T, HeLa, and H460 cells, 1 or 24 hour treatments; cited from earlier work
# [16] = tested on: AKT (PKB) Ser473 phosphorylation; conditions: human adipocytes, 0.01 μM; cited from earlier work
# [17] = Glucose tolerance (ipGTT) during chronic treatment in lean C57Bl/6 mice; assay type: in vivo; conditions: chronic treatment 15 days, I-29 10 mg/kg PO, rapamycin 10 mg/kg IP
# Description: Assessment of Effect of Chronic Treatment with I-29 on Glucose Tolerance and Insulin Sensitivity in Lean C57Bl/6 Mice
# C57Bl/6 mice (n=12; 8 weeks of age) were randomized and baseline measurements (weight, fasting glucose, and fasting insulin) were measured four (4) days prior to the administration of compounds or vehicle. Animals were then treated with I-29 (10 mg/kg PO), rapamycin (10 mg/kg IP) or vehicle (PO or IP) for 19 days. On day 7 and 14 animals were weighed and fed glucose and fed insulin levels were evaluated. Animals were fasted overnight on day 14 and on day 15 fasting insulin and an intraperitoneal glucose tolerance test (ipGTT) were evaluated. On day 19 animals were sacrificed one (1) hour after compound or vehicle administration. Tissues were harvested for evaluating compound levels and pharmacodynamics.
# [18] = tested on: Akt (an mTORC2 substrate); conditions: cited from earlier work
# [19] = tested on: Akt phosphorylation; conditions: mice treated daily for 1 week; cited from earlier work
# [20] = Pharmacokinetic properties in C57Bl/6 mice; assay type: in vivo; conditions: for half-life: read-out: Terminal T1/2 (converted)
# Description: Pharmacokinetic Properties
# The pharmacokinetic properties of compounds of the present invention were evaluated in C57Bl/6 mice and compared with rapamycin. Animals were fasted overnight prior to administration of I-29 or rapamycin (1 mg/kg IV, 10 mg/kg PO, or 2 mg/kg IP). Animals were bled at time intervals for up to 48 hours following administration of compounds. Whole blood from each mouse was indivisually collected in polypropylene tubes and immediately centrifuged. Alloquates of the separated plasma were promptly prepared for HPCL analysis.
# [21] = tested on: Lmn−/− mice; conditions: short-term treatment; cited from earlier work
# [22] = tested on: glucose uptake in human adipocytes; conditions: 0.01 μM; cited from earlier work
smiles,measurement,setting,value
"CO[C@@H]1C[C@H](C[C@@H](C)[C@@H]2CC(=O)[C@H](C)/C=C(\C)[C@@H](O)[C@@H](OC)C(=O)[C@H](C)C[C@H](C)/C=C/C=C/C=C(\C)[C@@H](OCCOCCO)C[C@@H]3CC[C@@H](C)[C@@](O)(O3)C(=O)C(=O)N3CCCC[C@H]3C(=O)O2)CC[C@H]1OCCO [I-117, (21E,23E,25E,26E,34R,35S,36R,37R,39S,41S,43S,44S,45R,46R, 55R)-45,55-dihydroxy-43-[2-(2-hydroxyethoxy)ethoxy]-44-[(1R)-2-[(1S,3R, 4R)-4-(2-hydroxyethoxy)-3-methoxy-cyclohexyl]-1-methyl-ethyl]-46-methoxy-34,35,36,37,47,48-hexamethyl-66, 67-dioxa-56-azatricyclohexatriaconta-21,23,25(47),26(48)-tetraene-49, 50,51,52,53-pentone]",inhibition of mTORC2 (Akt phosphorylation),[1],do not inhibit
same,inhibition of the mTORC1 pathway,[2]; 90 minutes,strong inhibition
same,inhibition of the mTORC1 pathway,[2]; 24 hours,strong inhibition
same,inhibition of IFN-γ production,[3],did not inhibit
same,IC50,[3],> 3000 nM
same,inhibition of mTORC2 (Akt phosphorylation),[4],does not inhibit
same,inhibition of the mTORC1 pathway,"[5]; PC3 cells, 24 hours",strong inhibition
same,mTORC1 selective @ 24 hrs,[6],YES
same,inhibition of mTORC2 (Akt phosphorylation),[7]; 90 minutes,do not inhibit
same,inhibition of mTORC2 (Akt phosphorylation),[7]; 24 hours,do not inhibit
same,inhibition of the mTORC1 pathway,[8],strong inhibition
same,inhibition of the mTORC1 pathway,[9]; 90 minutes,moderate concentration dependent inhibition
same,inhibition of 4E-BP1 phosphorylation,[10],no inhibition
same,inhibition of the mTORC1 pathway,[11],moderate inhibition; also recorded: strong inhibition
same,inhibition of mTORC2 (Akt phosphorylation),[12],do not inhibit
same,IC50,[13],< 0.1 nM
same,inhibition of mTORC2 (Akt phosphorylation),[14],do not inhibit
"CO[C@H]1C[C@@H]2CC[C@@H](C)[C@@](O)(O2)C(=O)C(=O)N2CCCC[C@H]2C(=O)O[C@H]([C@H](C)C[C@@H]2CC[C@@H](O)[C@H](OC)C2)CC(=O)[C@H](C)/C=C(\C)[C@@H](O)[C@@H](OC)C(=O)[C@H](C)C[C@H](C)/C=C/C=C/C=C/1C [Rapamycin, rapamycin]",S6K1 phosphorylation,[15],inhibited
same,inhibition of the mTORC1 pathway,[2]; 24 hours,strong inhibition
same,inhibition of IFN-γ production,[3],significantly inhibited
same,IC50,[3],2.4 nM
same,inhibition of the mTORC2 pathway (Akt phosphorylation),[4]; 24 and 48 hours,inhibition; also recorded: inhibited
same,inhibition of mTORC2 (Akt phosphorylation),[4],dose dependent inhibition
same,AKT (PKB) Ser473 phosphorylation,[16],reduced
same,inhibition of the mTORC1 pathway (pS6K1),"[5]; PC3 cells, 24 and 48 hours",significant reduction; also recorded: strong inhibition
same,inhibition of the mTORC1 pathway,"[5]; PC3 cells, 30, 15, or 5 minutes",time dependent inhibition
same,inhibition of the mTORC1 pathway,"[5]; PC3 cells, 90 minutes",strong inhibition
same,inhibition of the mTORC1 pathway,"[5]; PC3 cells, 24 hours",strong inhibition
same,glucose intolerance in intraperitoneal glucose tolerance test (ipGTT),[17],induced glucose intolerance
same,inhibition of the mTORC1 pathway,[9]; 90 minutes,strong inhibition
same,inhibition of the mTORC1 pathway,[9]; 24 hours,strong inhibition
same,inhibition of pAKT,[18]; HEK-293T cells,Partial inhibition
same,Akt phosphorylation,[18]; HeLa cells,increase
same,Akt phosphorylation,[18]; PC3 cells,strongly decreased
same,"Akt phosphorylation in the thymus, adipose tissue, heart, and lung",[19],decreased
same,F,[20]; 2 mg/kg IP,35.1%
same,F,[20]; 10 mg/kg PO,0.8%
same,AUC(0-inf),"[20]; mouse, plasma, 1 mg/kg IV",3630 ng·h/mL
same,AUC(0-t),"[20]; mouse, plasma, 1 mg/kg IV",3620 ng·h/mL
same,MRT inf,"[20]; mouse, plasma, 1 mg/kg IV",6.27 h
same,clearance,"[20]; mouse, plasma, 1 mg/kg IV",4.6 mL/min/kg
same,half-life,"[20]; mouse, plasma, 1 mg/kg IV",501 min
same,Vd,"[20]; mouse, plasma, 1 mg/kg IV, read-out: Vss",1.73 L/kg
same,AUC(0-inf),"[20]; mouse, plasma, 2 mg/kg IP",2540 ng·h/mL
same,AUC(0-t),"[20]; mouse, plasma, 2 mg/kg IP",2480 ng·h/mL
same,Cmax,"[20]; mouse, plasma, 2 mg/kg IP",614 ng/mL
same,Tmax,"[20]; mouse, plasma, 2 mg/kg IP",0.25 h
same,half-life,"[20]; mouse, plasma, 2 mg/kg IP",288 min
same,AUC(0-t),"[20]; mouse, plasma, 10 mg/kg PO",292 ng·h/mL
same,Cmax,"[20]; mouse, plasma, 10 mg/kg PO",52.8 ng/mL
same,Tmax,"[20]; mouse, plasma, 10 mg/kg PO",3 h
same,inhibition of 4E-BP1 phosphorylation,[10],no inhibition
same,enhanced survival,[21],~50%
same,glucose uptake,[22],reduced
